# Assays:
# Format in all cases: in vivo
# [1] = tested on: Phakopsora pachyrhizi; experiment: Curative treatment of diseased soybean plants, field experiments
# Method: In field experiments, different varieties of soybean plants whose leaves were already infested with Phakopsora pachyrhizi were treated with an aqueous triticonazole preparation using equipment conventionally used under practice conditions. The application rates were from 20 to 200 g/ha. 25 days after the treatment, the disease level on the untreated, but infested, leaves had developed to such an extent that it covered 50% of the leaf area. In the treated plants, in contrast, Phakopsora pachyrhizi disease had only reached a maximum of 25%.
# [2] = tested on: Phakopsora pachyrhizi; experiment: Protective treatment of soybean plants, field experiments
# Method: In field experiments, different varieties of soybean plants were treated with an aqueous triticonazole preparation. The application rates amounted to 20 to 200 g/ha. Thereafter, the plants were inoculated with Phakopsora pachyrhizi. 25 days after the treatment, the disease level on the untreated, but infested, leaves had developed to such an extent that it covered 50% of the leaf area. In the treated plants, in contrast, Phakopsora pachyrhizi disease had only reached a maximum of 25%.
# [3] = tested on: Phakopsora pachyrhizi; experiment: Seed treatment of soybean c.v. Embrapa 48, rust disease of leaf areas; details: seed treatment 12.5, 25, 50, 100 and 250 g per 100 kg of seed, all cases, after 50 days; untreated at least 50%
# Method: Seed of soybean plants c.v. “Embrapa 48” were treated with a composition suitable for seed treatment, comprising triticonazole as active substance, at application rates in the range of from 12.5 g, 25 g, 50 g, 100 g and 250 g of triticonazole per 100 kg of seed. Thereafter, the seed was sown. The soybean plants thus grown were then inoculated with Phakopsora pachyrhizi. After 50 days, the level of rust disease of the leaf areas was determined. The disease level in the plants from untreated seed was at least 50%, whereas the disease level of the leaf area in plants from treated seed was less than 25% in all cases.
# [4] = tested on: Phakopsora pachyrhizi; experiment: Protective activity against soybean rust via seed treatment, field experiment in Brazil; details: cultivar IAC 8.2, 60 DAT, untreated 40
# Method: A defined amound of a commercial ready-to-used formulation of Triticonazole (suspension concentrate, concentration of active ingredient 200 g/l), corresponding to the desired application (a.r.) rate of 5, 15, 30 und 50 g ai/100 kg soybean was diluted with water to a total volume of 1 Ltr./100 kg Soybean.
# Soybean seeds of the cultivar “IAC 8.2” were treated in a commercial device for dressing seeds with the thus prepared aqueous suspension of triticonazole and then seeded in a field experiment in Brazil. The leaves of the soybean plants thus grown were inoculated at an appropriate growing stage with a spore suspension of soybean rust (Phakopsora pachyrhizi). Thereafter the plants were kept wet for 6-8 h overnight by means of a finely dripping sprinkling device. During this time the spores germinated and their germ tubes penetrated into the leaf tissue. 60 days after treatment (60 DAT) or seeding, respectively, the extent of rust formation on the leaves of the infected plants was determinated.
# [5] = tested on: Phakopsora pachyrhizi; experiment: Curative activity against soybean rust via spray application, potted seedlings in greenhouse; details: 3 days after inoculation, cultivar Hutcheson, untreated 80
# Method: A commercial ready-to-used formulation of Triticonazole (suspension concentrate, concentration of active ingredient 200 g/l) was diluted with water to the active ingredient concentraten (act.conc.) given in Table 2.
# Leaves of potted soybean seedlings of the cultivar “Hutcheson” were inoculated with a suspension of spores of soybean rust (Phakopsora pachyrhizi). The pots were placed in a chamber with high atmospheric humidity (90 to 95%) at 22 to 24° C. for 24 hours. During this time, the spores germinated and the germ tubes penetrated into the leaf tissue. After 3 days, the infected plants were sprayed to runoff point with an aqueous suspension having the concentration of active compound as given in table 2. The suspensions or emulsions were prepared as described above. After the spray coating was dry, the test plants were cultivated in a greenhouse at temperatures between 22 and 24° C. and at 90% relative humidity for 17 days. The extent of the rust development on the leaves was then determined.
smiles,measurement,setting,value
"CC1(C)CC/C(=C\c2ccc(Cl)cc2)C1(O)Cn1cncn1 (centres unmarked) [triticonazole, (E)-5-(4-chlorobenzylidene)-2,2-dimethyl-1-(1H-1,2,4-triazol-1-ylmethyl)cyclopentanol]",yield in comparison with the untreated control,"[1]; 20 to 200 g/ha, field",markedly improved
same,Phakopsora pachyrhizi disease level (leaf area covered),"[1]; aqueous preparation 20 to 200 g/ha, 25 days after treatment, different soybean varieties, untreated 50%",≤ 25%
same,yield in comparison with the untreated control,"[2]; 20 to 200 g/ha, field",markedly improved
same,Phakopsora pachyrhizi disease level (leaf area covered),"[2]; aqueous preparation 20 to 200 g/ha, inoculated after treatment, 25 days after treatment, untreated 50%",≤ 25%
same,disease level of the leaf area,[3],less than 25%
same,% infected leaf area (60 DAT),[4]; seed treatment a.r. 5 g/100 kg,23%
same,% infected leaf area (60 DAT),[4]; seed treatment a.r. 15 g/100 kg,11%
same,% infected leaf area (60 DAT),[4]; seed treatment a.r. 30 g/100 kg,9%
same,% infected leaf area (60 DAT),[4]; seed treatment a.r. 50 g/100 kg,3%
same,% infected leaf area (17 DAT),[5]; spray act. conc. 1 ppm,9%
same,% infected leaf area (17 DAT),[5]; spray act. conc. 4 ppm,1%

# Reference: US7576113B2, “Use of (E)-5-(4-chlorbenzyliden)-2,2-dimethyl-1-(1H-1,2,4-triazol-1-ylmethyl) cyclopentanol for combating rust attacks on soya plants” (BASF Aktiengesellschaft, priority 2004, dated 2009)
